This note sets out measurements from patent US20030049287A1, “Catechol oximes and their use in cosmetic and dermatological preparations” (priority 1999, published 2003).

The nature of data set [1]: DPPH test, activity as free-radical scavenger. The class given is biochemical. The note with it: DPPH 100 μmol/l in methanol, absorption at 515 nm. How it is done:
The activity of the illustrative compounds as in examples 7 to 13 as free-radical scavengers was compared with the conventional free-radical scavenger and two examples from WO 95 01,157. For this, the DPPH (1,1-diphenyl-2-picryl-hydrazyl) test was used to eliminate free radicals.
DPPH was dissolved in methanol to a concentration of 100 μmol/l. A series of dilutions of the illustrative compounds, vitamin C, α-tocopherol and dibutylhydroxytoluene were prepared in methanol. Methanol was used as the control. 2500 μl of the DPPH solution were mixed with 500 μl of each test solution, and the decrease in the absorption at 515 nm was read off until the decrease was less than 2% per hour. The activity of the test substances as free-radical scavengers was calculated according to the following equation:
Activity as free-radical scavenger (%)=100−(absorption of the test compounds)/(absorption of the control)×100.
The activity of the free-radical scavengers (%) in a series of dilutions of test compounds was used to calculate, for each test compound, the effective relative concentration EC50 (based on the initially present concentration of DPPH, EC=c (test compound)/c(DPPH)) of a test compound at which 50% of the DPPH free radical had been eliminated.

Data set [2] can be described thus: Rancimat accelerated autoxidation of lipids by air, squalene. As to conditions: antioxidative index = IP(with test solution)/IP(control sample), squalene purified over alumina, stabilized with 1 ppm α-tocopherol, 0.005% test substance. How it is done: (§1) The activity of the illustrative compounds according to Examples 7 to 13 as antioxidants was compared with the conventional antioxidants and two examples from WO 95 01,157. The test system used was the accelerated autoxidation of lipids by air with or without antioxidant using the Rancimat apparatus (Rancimat is a registered trademark of Metrohm AG, Herisau, Switzerland).
(§2) The illustrative compounds, vitamin C, α-tocopherol and dibutyihydroxytoluene were dissolved in methanol or acetone and 100 μl of each test solution were added to a prepared oil sample of 3 g. In a control sample only solvent was added. A constant stream of dry air (20 l/h) was bubbled through the heated oil sample containing the test solution, and the volatile oxidation products (predominantly short-chain fatty acids such as formic acid or acetic acid) were collected in a receiver containing water. The conductivity of this aqueous solution was measured continuously and documented. The oxidation of (unsaturated) fats proceeds here only very slowly for a period of time and then suddenly increases greatly. The time to the increase is referred to as the induction period (IP).
(§3) The antioxidative index (AOI) was obtained according to the following equation:
(§4) AOI=IP(with test solution)/IP(control sample).
The results for the experiment at 80° C. in squalene that was purified over alumina grade N and stabilized with 1 ppm of α-tocopherol are shown in table 4: […]

Data set [3] is described as follows: Rancimat accelerated autoxidation of lipids by air, soybean oil. The note with it: antioxidative index = IP(with test solution)/IP(control sample), soybean oil purified over alumina, 0.05% test substance. How it is done: as §1, §2, §3, §4

Turning to `Cc1c(C)c2c(c(C)c1O)CC[C@@](C)(CCC[C@H](C)CCC[C@H](C)CCCC(C)C)O2` [α-Tocopherol, reference compound], the “EC50 (effective relative concentration, c(test compound)/c(DPPH), at which 50% of the DPPH free radical had been eliminated)” value in data set [1] came to 0.250 mol/mol. For the same compound, the “AOI in squalene at 80° C. with 0.005% of test substance” value (from here on “AOI … with 0.005% of test substance”) in data set [2] stood at 39. In data set [3], the “AOI in soybean oil at 100° C. with 0.05% of test substance” value (“AOI … with 0.05% of test substance” below) worked out at 5.1.

In the case of `CC(=NO)c1ccccc1O` [o-Hydroxyacetophenone oxime, reference compound], the “EC50 (effective relative concentration, c(test compound)/c(DPPH), at which 50% of the DPPH free radical had been eliminated)” value in data set [1] was greater than 3.0 mol/mol. The “AOI … with 0.005% of test substance” value in data set [2] is on record as 1.6. Also, the “AOI … with 0.05% of test substance” value in data set [3] came out at 0.9.

Consider `CCON=C(C)c1ccc(O)c(O)c1` [Example 12, 3,4-Dihydroxyacetophenone O-ethyloxime], for which the “EC50 (effective relative concentration, c(test compound)/c(DPPH), at which 50% of the DPPH free radical had been eliminated)” value in data set [1] is 0.298 mol/mol. Also, in data set [2], the “AOI … with 0.005% of test substance” value stood at 65. Further, the “AOI … with 0.05% of test substance” value in data set [3] came out at 15.2.

Take `Cc1cc(C(C)(C)C)c(O)c(C(C)(C)C)c1` [Dibutylhydroxytoluene, reference compound]: the “EC50 (effective relative concentration, c(test compound)/c(DPPH), at which 50% of the DPPH free radical had been eliminated)” value in data set [1] worked out at 0.240 mol/mol. The “AOI … with 0.005% of test substance” value in data set [2] worked out at 38. The “AOI … with 0.05% of test substance” value in data set [3] came to 4.8.

For `Cc1ccc(CON=Cc2ccc(O)c(O)c2)cc1` [Example 11, 3,4-Dihydroxybenzaldehyde O-(4-methylbenzyl)oxime], the melting point (in general, the temperature of the solid-liquid transition) lay in the range of 85 to 86 °C. The “EC50 (effective relative concentration, c(test compound)/c(DPPH), at which 50% of the DPPH free radical had been eliminated)” value in data set [1] stood at 0.131 mol/mol. Also, the “AOI … with 0.005% of test substance” value in data set [2] came out at 50. Also, the “AOI … with 0.05% of test substance” value in data set [3] is recorded as 14.1.

Regarding `CCON=Cc1cc(O)c(O)c(O)c1` [Example 13, 3,4,5-Trihydroxybenzaldehyde O-ethyloxime], the melting point turned out to be 80 °C. Besides, in data set [1], the “EC50 (effective relative concentration, c(test compound)/c(DPPH), at which 50% of the DPPH free radical had been eliminated)” value worked out at 0.132 mol/mol. Also, in data set [2], the “AOI … with 0.005% of test substance” value came to 126. In addition, in data set [3], the “AOI … with 0.05% of test substance” value stood at 17.2.

Turning to `O=C1O[C@H]([C@@H](O)CO)C(O)=C1O` [Vitamin C, reference compound], in data set [1], the “EC50 (effective relative concentration, c(test compound)/c(DPPH), at which 50% of the DPPH free radical had been eliminated)” value came out at 0.270 mol/mol. Besides, the “AOI … with 0.005% of test substance” value in data set [2] turned out to be 0.7. Also, the “AOI … with 0.05% of test substance” value in data set [3] was 1.2.

Turning to `ON=Cc1cc(O)c(O)c(O)c1` [Example 9, 3,4,5-Trihydroxybenzaldehyde oxime], the melting point was 177 °C (dec.). Also, the “EC50 (effective relative concentration, c(test compound)/c(DPPH), at which 50% of the DPPH free radical had been eliminated)” value in data set [1] is 0.090 mol/mol. Besides, the “AOI … with 0.005% of test substance” value in data set [2] is 150. Besides, the “AOI … with 0.05% of test substance” value in data set [3] amounted to 20.9.

In the case of `CC(=NO)c1ccc(O)c(O)c1` [Example 8, 3,4-Dihydroxyacetophenone oxime], the “EC50 (effective relative concentration, c(test compound)/c(DPPH), at which 50% of the DPPH free radical had been eliminated)” value in data set [1] came to 0.073 mol/mol. The “AOI … with 0.005% of test substance” value in data set [2] is given as 95. The “AOI … with 0.05% of test substance” value in data set [3] stood at 16.6.

Compound `CCON=Cc1ccc(O)c(O)c1` [Example 10, 3,4-Dihydroxybenzaldehyde O-ethyloxime] came in with a melting point of less than 23 °C. Besides, in data set [1], the “EC50 (effective relative concentration, c(test compound)/c(DPPH), at which 50% of the DPPH free radical had been eliminated)” value is 0.156 mol/mol. Further, the “AOI … with 0.005% of test substance” value in data set [2] was found to be 85. In addition, the “AOI … with 0.05% of test substance” value in data set [3] was found to be 17.3.

As to `ON=Cc1ccc(O)c(O)c1` [Example 7, 3,4-Dihydroxybenzaldehyde oxime], the melting point was 143 °C (dec.). In addition, the “EC50 (effective relative concentration, c(test compound)/c(DPPH), at which 50% of the DPPH free radical had been eliminated)” value in data set [1] turned out to be 0.053 mol/mol. Besides, the “AOI … with 0.005% of test substance” value in data set [2] is recorded as 70. Further, in data set [3], the “AOI … with 0.05% of test substance” value was 15.8.
